Source: PMC10290130, “The potential of phenothiazinium dyes as cytotoxicity markers in cisplatin-treated cells” (Scientific Reports, 2023)
Like-named read-outs stand apart in the source and are kept apart here.

Key:
Vero cells [1] = conditions: 72 h of incubation; cited from earlier work
[2] = system: Vero cells and fibroblasts; experiment: DMSO cytotoxicity, 72 h, read with phenothiazinium dyes, NR or MTT; assay type: cell-based, African green monkey; human; conditions: DMSO in concentrations above 5%
Method: (§1) Cells were treated with either DMSO (Vero cells and primary fibroblasts) or cisplatin (LLC-MK2, MCF 10A, and MDA-MB-231). […] After treatment with DMSO and cisplatin, labeling with MTT or NR was performed as described previously[27],[28] with modifications[29],[30]. Cells incubated with phenothiazinium dyes were processed by the same protocol used for NR. […] The cells incubated with MTT were diluted with 100 µl of DMSO. The plates were read at 540 nm (NR) or 570 nm (MTT) in an ELISA reader (Epoch Biotek). Three (LLC-MK2 and MDA-MB-231) and two (Vero cells, human primary fibroblasts and MCF 10A) independent experiments were performed.
(§2) Values for area under the curve were calculated with GraphPad Prism 8.0 software (San Diego, California USA). For cells incubated with DMSO or cisplatin, the percentage of inhibition was calculated from the absorbance of treated samples relative to their non-treated controls. These values were used to calculate the half-maximal inhibitory concentration (IC50) of cisplatin and DMSO, which was done with Compusyn software (version 1.0)[31].

Vero cells [3] = experiment: Light microscopy of phenothiazinium dye accumulation in cells; assay type: cell-based, African green monkey; conditions: during incubation with cells; phenothiazinium dyes 100 µM, NR 50 µg/ml
Method: The accumulation of phenothiazine dyes in cells was detected by light and confocal microscopies. Firstly, Vero cells were incubated with MB, NMB, TBO, and DMMB (100, 50, 25 and 12.5 µM) for 3 h, 37 °C, 5% CO2 and washed with PBS. […] For confocal detection of phenothiazinium dyes, Vero cell cultures were incubated with 10 μM of MB, NMB, TBO or DMMB for 30 min, 37 °C, with 5% CO2. For all procedures, non-treated controls were incubated with RPMI under the same conditions. The cultures were washed with PBS and treated with trypsin for 10 min, 37 °C and 5% CO2. The cells were transferred to slides and analyzed by confocal microscopy with excitation/emission wavelengths of 543/600 nm, respectively.

[4] = design: method as in PMID 23758207; conditions: cited from earlier work
MCF 10A = experiment: Cisplatin cytotoxicity, 72 h, read with phenothiazinium dyes, NR or MTT; assay type: cell-based, human
Method: as §1, §2

MDA-MB-231 [5] = experiment: as above; assay type: cell-based, human
Method: as §1, §2

LLC-MK2 = experiment: as above; assay type: cell-based, rhesus monkey
Method: as §1, §2

MDA-MB-231 [6] = system: MDA-MB-231; design: method as in PMID 33261142; conditions: read-out: concentration inhibiting 50% of growth; cited from earlier work

In the case of `Cc1cc(N(C)C)cc2[s+]c3cc(N(C)C)cc(C)c3nc12.[Cl-]` [DMMB, 3,7-bis(dimethylamino)-1,9-dimethylphenothiazin-5-ium chloride], the “concentrations with toxic effects” value (Vero cells [1]) is listed as “below 10 µM”.

With `C[S+](C)[O-]` [DMSO, dimethyl sulfoxide] the cell inhibition [2] was over 70%.

In the case of `Cc1cc2nc3ccc(N(C)C)cc3nc2cc1N.Cl` [NR, 3-amino-7-dimethylamino-2-methylphenazine hydrochloride], the “dye precipitation / crystal formation” value (Vero cells [3]) is given as “Crystals of NR formed”, the pKa [4] is given as 6.9 and the “log P” value ([4]; free base state) is given as 1.9.

With `N.N.[Cl][Pt][Cl]` [cisplatin, cis-diammineplatinum (II) dichloride] the “concentrations at which cells were resistant” value (MCF 10A) was “below 25 µM”, the IC50 (MCF 10A; indicator DMMB) was 14.8 µM and the IC50 (MCF 10A; indicator MB) was 9.26 µM. For the same molecule, the IC50 (MCF 10A; indicator MTT) was 11.9 µM, the IC50 (MCF 10A; indicator NMB) was 17.1 µM and the IC50 (MCF 10A; indicator NR) was 13.5 µM. For the same molecule, the IC50 (MCF 10A; indicator TBO) was 14.6 µM, the cell inhibition (MDA-MB-231 [5]; cisplatin at concentrations above 12.5 µM) was “more than 50%” and the IC50 (MDA-MB-231 [5]; indicator NMB) was 1.83 µM. For the same molecule, the IC50 (MDA-MB-231 [5]; indicator NR) was 8.44 µM, the “concentrations at which cells were resistant” value (LLC-MK2) was under 50 µM and the IC50 (LLC-MK2; indicator DMMB) was 29.5 µM. The IC50 (LLC-MK2; indicator MB) was 19 µM, the IC50 (LLC-MK2; indicator MTT) was 25.2 µM and the IC50 (LLC-MK2; indicator NMB) was 28.2 µM. The IC50 (LLC-MK2; indicator NR) was 34.9 µM, the IC50 (LLC-MK2; indicator TBO) was 30.4 µM and the IC50 (MDA-MB-231 [6]) was 6 µM.
